Laboratory results reported in patent US9156790B2, “Anticancer P21-activated kinase inhibitors” (Ohio State Innovation Foundation, priority 2013, dated 2015).
Like-named read-outs stand apart in the source and are kept apart here.

How the values were obtained:
[1] = test system: FTC133 cells; assay: MTT cell viability assay, FTC133; format: cell-based, Human; settings: 1% FBS, mean±standard deviation (n=3), read-out: IC50 for reducing viability of FTC133 cells versus DMSO control
From the text: (§1) Human thyroid cancer BCPAP, TPC1, and FTC133 cell lines were the generous gifts of Drs. Rebecca Schweppe and Bryan Haugen (University of Colorado Denver) (Schweppe et al., The Journal of clinical endocrinology and metabolism 83:4331-4341 (2008)) with permission from the following originating laboratories: BCPAP—Dr. Fabien, Centre Hospitalier Lyon-Sud, France (Fabien et al., Cancer 73:2206-2212 (1994)); TPC1—Dr. Sato, Kanazawa University, Japan (Tanaka et al., Virology 161:62-411 (1987)); and FTC133—Dr. Goretzki, University of Leipzig, Germany (Goretzki et al., Recent Results Cancer Res 118:48-63 (1990)). The obtained cell lines were confirmed for identity by DNA fingerprinting. BCPAP was grown in RPMI 1640 medium (Life Technologies Co., Carlsbad, Calif.) while FTC133 and TPC1 were grown in DMEM (Life Technologies Co.), both supplemented with 10% fetal bovine serum (FBS) and NEAA unless as noted for experiments.
(§2) The effect of OSU-03012 and its derivatives on cell viability was assessed by using the 3-(4,5-dimethylthiazol-2-yl)-2,5-diphenyl-2H-tetrazolium bromide (MTT) assay. Three replicates were performed in each individual experiment, and experiments were repeated at least three separate times. Cells were grown in 96-well plates for 24 hours and were exposed to various concentrations of drugs dissolved in DMSO (final concentration 0.1%) in RPMI 1640 or DMEM containing 1% FBS for 72 hours. 10 μL of 0.5 mg/ml MTT was added to each well and cells were incubated in CO2 at 37° C. for 2 hours. Supernatants were removed from the wells, the reduced MTT dye was solubilized in 100 μL of solution C (12 ml of 1N HCl in 300 mL of isopropanol), and absorbance at 570 nm was determined on a microplate reader.
(§3) We assessed the ability of the compounds to reduce cell viability in vitro by MTT assay after 72 hours of continuous exposure. Results are shown in Table 1 and are depicted as the IC50 vs. simultaneously performed DMSO control.
(§4) ^aThe reported IC50 values are concentrations at which BCPAP, FTC133 and TPC1 cell viability by MTT assays 50% of DMSO control after 72-hours of exposure. Data are presented as mean±standard deviation (n=3). PAK and PDK1 Selectivity In Vivo

[2] = molecular target: T1, Recombinant active PAK 1 (Homo sapiens, UniProt Q13153); assay: In vitro PAK1 kinase assay (MBP substrate, 32P-ATP); format: biochemical; settings: for Relative PAK1 inhibitory potency (comparison in words): in vitro kinase assay, comparison between compounds / with OSU-03012; for Inhibition of PAK1 kinase activity in initial screen: 7.5 μM inhibitor, 2.5 μM ATP, myelin basic protein substrate (FIG. 2A)
T1 construct: purchased Calbiochem
T1 sequence (Q13153 whole entry): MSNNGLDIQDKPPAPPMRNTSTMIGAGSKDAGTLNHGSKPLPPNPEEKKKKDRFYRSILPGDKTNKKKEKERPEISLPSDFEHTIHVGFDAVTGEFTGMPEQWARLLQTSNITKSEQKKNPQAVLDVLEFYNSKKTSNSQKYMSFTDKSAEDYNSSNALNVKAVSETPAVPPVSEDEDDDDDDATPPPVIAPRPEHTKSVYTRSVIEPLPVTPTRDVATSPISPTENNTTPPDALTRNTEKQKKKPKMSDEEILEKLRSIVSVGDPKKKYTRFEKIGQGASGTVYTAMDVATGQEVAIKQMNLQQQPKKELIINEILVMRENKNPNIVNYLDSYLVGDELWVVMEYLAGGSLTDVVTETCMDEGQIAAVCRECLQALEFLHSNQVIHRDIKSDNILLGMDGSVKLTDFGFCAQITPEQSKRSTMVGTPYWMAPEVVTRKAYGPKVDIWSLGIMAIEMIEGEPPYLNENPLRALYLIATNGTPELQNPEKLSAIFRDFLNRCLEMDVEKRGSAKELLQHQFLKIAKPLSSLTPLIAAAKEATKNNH
Description: Recombinant active PAK 1 (Calbiochem) was incubated with selected derivatives or 0.1% DMSO in the presence or absence of MBP (Sigma) in a 1× kinase buffer (Cell Signaling). The addition of [γ-32P]-ATP (2.5 μCi/reaction) (Perkin Elmer) started the reaction, which was incubated at 30° C. for 30 minutes. The reaction was terminated by the addition of EDTA. Results were obtained after visualization of ^32P-labeled MBP after separation on 12% polyacrylamide gels and autoradiography. For the Lineweaver-Burk plot analysis, the ratio of radioactive ATP to nonradioactive ATP was not altered. The PAK1 kinase activities are the means of three independent experiments quantified using P81 phosphocellulose paper by a scintillation counter after three washes with 0.75% phosphoric acid.
Screening of OSU-03012 Derivatives to Identify PAK1 Inhibitors. The 17 derivatives along with OSU-03012, each at 7.5 μM, were screened for their ability to inhibit PAK1 activity by in vitro PAK1 kinase assay. The dose was chosen (above the IC50 of OSU-03012) to allow OSU-03012 to serve as a robust positive control. The PAK1 kinase assay was performed using recombinant active PAK1 with myelin basic protein as substrate in the presence of 2.5 μM ATP and 7.5 μM of respective inhibitors.
To further investigate these six compounds, dose-response studies on PAK1 activity were performed by using PAK1 kinase assay. […] We next questioned whether compounds 4 or 15 inhibited PAK1 in an ATP competitive manner as their parent compound OSU-03012.

[3] = test system: BCPAP cells; assay: MTT cell viability assay, BCPAP; format: cell-based, Human; settings: 72-hours of exposure, 1% FBS, mean±standard deviation (n=3), read-out: IC50 for reducing viability of BCPAP cells versus DMSO control
From the text: as §1, §2, §3, §4

[4] = test system: TPC1 cells; assay: MTT cell viability assay, TPC1; format: cell-based, Human; settings: 1% FBS, mean±standard deviation (n=3), read-out: IC50 for reducing viability of TPC1 cells versus DMSO control
From the text: as §1, §2, §3, §4

[5] = Homo sapiens, FTC-133, 72-hours of exposure
[6] = Homo sapiens, TPC1, 72-hours of exposure

Molecule | IC50 ([1]; 72-hours of exposure) | Relative PAK1 inhibitory potency (comparison in words) [2] | IC50 [3] | IC50 ([4]; 72-hours of exposure) | IC50 [1, 5] | Inhibition of PAK1 kinase activity in initial screen [2] | IC50 ([3]; Homo sapiens, BCPAP) | IC50 [4, 6]
1-(4-Aminophenyl)-5-(phenanthren-2-yl)-1H-pyrazol-3-yl) methanol [Compound 6] | > 10 µM | did not show any activity | > 10 µM | > 10 µM |  |  |  | 
NCC(=O)Nc1ccc(-n2nc(C(=O)NCc3ccccc3)cc2-c2ccc3ccc4ccccc4c3c2)cc1 [Compound 1, 1-(4-(2-Aminoacetamido)phenyl)-N-benzyl-5-(phenanthren-3-yl)-1H-pyrazole-3-carboxamide] |  |  |  |  | 4.78 ± 4.53 µM | inhibited PAK1 kinase activity | 2.01 ± 0.59 µM | 2.6 ± 0.81 µM
CCNC(=O)c1cc(-c2ccc3ccc4ccccc4c3c2)n(-c2ccc(NC(=O)CN)cc2)n1 [Compound 2, 1-(4-(2-aminoacetamido)phenyl)-N-ethyl-5-(phenanthren-3-yl)-1H-pyrazole-3-carboxamide] |  |  |  |  | 4.83 ± 4.47 µM |  | 2.67 ± 0.82 µM | 1.81 ± 1.24 µM
NCC(=O)Nc1ccc(-n2nc(C(F)(F)F)cc2-c2ccc3ccc4ccccc4c3c2)cc1 [Compound 3, 2-Amino-N-(4-(5-(phenanthren-3-yl)-3-(trifluoromethyl)-1H-pyrazol-1-yl)phenyl)-acetamide] |  | slightly more potent |  |  | 5.32 ± 4.05 µM | inhibited PAK1 kinase activity | 2.34 ± 0.27 µM | 3.17 ± 1.29 µM
CNC(=O)c1cc(-c2ccc3c(ccc4ccccc43)c2)n(-c2ccc(N)cc2)n1 [Compound 5, 1-(4-Aminophenyl)-N-methyl-5-(phenanthren-2-yl)-1H-pyrazole-3-carboxamide] |  | did not show any activity |  |  | 5.03 ± 0.25 µM |  | > 10 µM | > 10 µM
CNC(=O)c1cc(-c2ccc3ccc4ccccc4c3c2)n(-c2ccc(NC(=O)CN)cc2)n1 [Compound 7, 1-(4-(2-aminoacetamido)phenyl)-N-methyl-5-(phenanthren-3-yl)-1H-pyrazole-3-carboxamide] |  |  |  |  | 4.53 ± 2.57 µM |  | 3.71 ± 1.82 µM | 3.67 ± 1.52 µM
CNC(=O)c1cc(-c2ccc3c(ccc4ccccc43)c2)n(-c2ccc(NC(=O)CN)cc2)n1 [Compound 8, 1-(4-(2-Aminoacetamido)phenyl)-N-methyl-5-(phenanthren-2-yl)-1H-pyrazole-3-carboxamide] |  |  |  |  | 3.08 ± 1.63 µM |  | 2.9 ± 2.35 µM | 4.67 ± 4.16 µM
NCC(=O)Nc1ccc(-n2nc(CO)cc2-c2ccc3ccc4ccccc4c3c2)cc1 [Compound 9, 2-Amino-N-(4-(3-(hydroxymethyl)-5-(phenanthren-3-yl)-1H-pyrazol-1-yl)phenyl)-acetamide] |  | did not show any improvement |  |  | 4.75 ± 2.47 µM |  | 4.04 ± 1.38 µM | 2.42 ± 0.13 µM
NCC(=O)Nc1ccc(-n2nc(CO)cc2-c2ccc3c(ccc4ccccc43)c2)cc1 [Compound 10, 2-Amino-N-(4-(3-(hydroxymethyl)-5-(phenanthren-2-yl)-1H-pyrazol-1-yl)phenyl)-acetamide] |  | more potent activity |  |  | 8.95 ± 0.57 µM | inhibited PAK1 kinase activity | 6.53 ± 2.16 µM | 7.39 ± 1.9 µM
NCCC(=O)Nc1ccc(-n2nc(CO)cc2-c2ccc3c(ccc4ccccc43)c2)cc1 [Compound 12, 3-Amino-N-(4-(3-(hydroxymethyl)-5-(phenanthren-2-yl)-1H-pyrazol-1-yl)phenyl)-propanamide] |  |  |  |  | 7.55 ± 2.19 µM |  | 3.76 ± 1.2 µM | 5.83 ± 1.73 µM
CNC(=O)c1cc(-c2ccc3ccc4ccccc4c3c2)n(-c2ccc(NC(=O)CCN)cc2)n1 [Compound 13, 1-(4-(3-Aminopropanamido)phenyl)-N-methyl-5-(phenanthren-3-yl)-1H-pyrazole-3-carboxamide] |  | more potent |  |  | 4.95 ± 3.21 µM |  | 2.76 ± 1.56 µM | 3.62 ± 0.42 µM
CNC(=O)c1cc(-c2ccc3c(ccc4ccccc43)c2)n(-c2ccc(NC(=O)CCN)cc2)n1 [Compound 14, 1-(4-(3-aminopropanamido)phenyl)-N-methyl-5-(phenanthren-2-yl)-1 μl-pyrazole-3-carboxamide] | 5.42 ± 1.56 µM | more potent | 3.32 ± 1.09 µM | 5.98 ± 0.28 µM |  |  |  | 
Nc1ccc(-n2nc(CO)cc2-c2ccc3ccc4ccccc4c3c2)cc1 [Compound 16, (1-(4-Aminophenyl)-5-(phenanthren-3-yl)-1H-pyrazol-3-yl)methanol] |  | did not show any activity |  |  | > 10 µM |  | > 10 µM | 4.32 ± 2.18 µM
CNC(=O)c1cc(-c2ccc3ccc4ccccc4c3c2)n(-c2ccc(N)cc2)n1 [Compound 17, 1-(4-Aminophenyl)-N-methyl-5-(phenanthren-3-yl)-1H-pyrazole-3-carboxamide] |  | did not show any activity |  |  | > 10 µM |  | > 10 µM | 8.96 ± 1.17 µM
